Reference: patent publication US8617583B2, “Alpha adrenergic receptor agonists for prevention or treatment of a hematoma, edema, and/or deep vein thrombosis” (Warsaw Orthopedic, Inc., priority 2009, dated 2013)

System: Rat Chronic Constriction Injury Model
Conditions: 0.02 mg/kg/day subcutaneously
Protocol: A 2-month chronic constriction injury (CCI) model of neuropathic pain was used to evaluate different formulations of a clonidine, encapsulated in bioerodable polymers compared to fluocinolone given subcutaneously (SC). Different formulations as provided in Table 5 below were evaluated for reducing pain-associated behaviors: Thermal paw withdrawal latency was evaluated at baseline 7, 14, 21, 28, 35, 42, 49, 56 and […] mechanical threshold was evaluated at 8, 15, 22, 29, 36, 43, 50, 57 and 64 days post-operatively.
The inventor evaluated the efficacy of a five Month Clonidine/Polyrner Drug Depot in the Rat Chronic Constriction Injury Model. The animal model was the Bennett Model (Wistar rat). The purpose: To determine whether a five month polymer clonidine-eluting depot can improve pain associated behavioral responses in a rat model of neuropathic pain.
Experimental Design: Four loose chromic gut ligatures, 1 mm apart, were tied around the common sciatic nerve at mid-thigh. Each animal received treatment of test or control article-according to the dosing described in Table 5.
The inventor has conducted the present study for a period of 64 days and have employed the following two tests: (1) the Hargreaves test; and (2) the von Frey test. The Hargreaves Tests of Thermal Hyperalgesia were conducted on days 7, 14, 21, 28, 35, 42, 49, 56 and 63. […]

In the case of Clc1cccc(Cl)c1N=C1NCCN1 [clonidine, 2,6-dichloro-N-2-imidazolidinyldenebenzenamine], the “pain behavioral response (measured as a percentage of baseline) for thermal hyperalgesia” value (FIG. 3, vs unloaded polymer depots 45%) is reported as 58% and the “pain behavioral response (percentage of baseline) for mechanical allodynia, in words” value (FIG. 4, compared to unloaded polymer depots) is reported as “reduced the behavioral response”.
